This is an account of results in ChEMBL document CHEMBL1201862, “PubChem BioAssay data set” (2004).

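Exposure lasted 48 hours, with cells grown in 96-well plates and compounds tested at five concentrations. GI50 = concentration required for 50% inhibition of growth.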 Calls of active or inactive are those of the source. Cut-off read from the data, not from the text of the source: active = GI50 up to about 1.1 µM and inactive = higher.

Among the test systems are CCRF-CEM; COLO 205; DU-145; HCC 2998; MDA-MB-231; MDA-N; Malme-3M; NCI-H23; OVCAR-4; OVCAR-8; PC-3; RXF 393; SK-MEL-2; SK-MEL-5; SK-OV-3; SN12C; SNB-19; SW-620; TK-10; UACC-62.
Experiment in all cases: growth of human tumour cells (NCI), 48 h

As to `CCCC(=O)n1[nH]c(=O)n(C(C)(C)C)c1=O`, the GI50 in the experiment on CCRF-CEM, in the experiment with COLO 205, with DU-145, in the experiment with HCC 2998, with MDA-MB-231 and with MDA-N was > 100 µM (inactive) each time. In addition, the GI50 with Malme-3M was 44.1 µM (inactive); with NCI-H23 it was > 100 µM (inactive); in the experiment on OVCAR-4, > 100 µM (inactive); with OVCAR-8, > 100 µM (inactive); in the experiment on PC-3 it was > 100 µM (inactive); with RXF 393, > 100 µM (inactive). The GI50 in the experiment with SK-MEL-2, with SK-MEL-5, in the experiment on SK-OV-3, in the experiment on SN12C, in the experiment with SNB-19 and with SW-620 was > 100 µM (inactive) each time. The GI50 with TK-10 and in the experiment on UACC-62 was > 100 µM (inactive) each time.
On to `CC1(C)CCCCC1/C=C/C(CC(O)(C(F)(F)F)C(F)(F)F)=N\Nc1ccc([N+](=O)[O-])cc1[N+](=O)[O-]` (stereo not given), for which the GI50 in the experiment on CCRF-CEM was 0.662 µM (active); in the experiment on COLO 205, 1.18 µM (inactive); in the experiment with DU-145, 2.52 µM (inactive); in the experiment on HCC 2998, 4.55 µM (inactive); with MDA-MB-231, 2.03 µM (inactive); in the experiment on MDA-N it was 2.84 µM (inactive). Also, the GI50 with Malme-3M was 4.51 µM (inactive); in the experiment with NCI-H23, 0.29 µM (active); in the experiment on OVCAR-4, 1.35 µM (inactive); in the experiment on OVCAR-8 it was 2.13 µM (inactive); in the experiment on PC-3, 0.333 µM (active); with RXF 393, 0.406 µM (active). In addition, the GI50 in the experiment on SK-MEL-2 is 3.18 µM (inactive); in the experiment on SK-MEL-5, 0.395 µM (active); in the experiment on SK-OV-3 it was 0.979 µM (active); in the experiment on SN12C, 2.13 µM (inactive); in the experiment with SNB-19, 4.5 µM (inactive); in the experiment with SW-620, 1.86 µM (inactive). The GI50 in the experiment with TK-10 is 0.546 µM (active); in the experiment with UACC-62, 1.02 µM (active).
For the compound `COc1cc(N(C)C)ccc1C=c1c2ccccc2n2c1cc(-c1ccccc1)[n+]2C`, the GI50 in the experiment on CCRF-CEM is 0.208 µM (active); with COLO 205, 0.151 µM (active); in the experiment with DU-145, 0.323 µM (active); in the experiment on HCC 2998, 0.48 µM (active); with MDA-MB-231, 0.332 µM (active); with MDA-N it was 0.308 µM (active). Moreover, the GI50 is 1.02 µM (active) with Malme-3M; 0.237 µM (active) with NCI-H23; 0.453 µM (active) with OVCAR-4; 0.163 µM (active) in the experiment with OVCAR-8; 0.233 µM (active) in the experiment on PC-3; 0.345 µM (active) with RXF 393. The GI50 is 0.469 µM (active) in the experiment on SK-MEL-2; 0.637 µM (active) with SK-MEL-5; 0.347 µM (active) in the experiment on SK-OV-3; 0.296 µM (active) with SN12C; 0.372 µM (active) in the experiment on SNB-19; 0.276 µM (active) with SW-620. For the same compound, the GI50 with TK-10 was 0.575 µM (active); in the experiment on UACC-62, 0.582 µM (active).
Take `CC(=O)Oc1ccc(/C=C/C(=O)OCCOC(=O)/C=C/c2ccc(OC(C)=O)c(OC(C)=O)c2)cc1OC(C)=O`: the GI50 in the experiment with CCRF-CEM is 1.25 µM (inactive); in the experiment on COLO 205 it was 14.1 µM (inactive); with DU-145 it was 9.06 µM (inactive); in the experiment on HCC 2998, 14.5 µM (inactive); in the experiment with MDA-MB-231 it was 14.5 µM (inactive); with MDA-N, 7.14 µM (inactive). Besides, the GI50 in the experiment with Malme-3M was 12.4 µM (inactive); in the experiment on NCI-H23, 4.26 µM (inactive); with OVCAR-4 it was 4.63 µM (inactive); with OVCAR-8, 4.8 µM (inactive); with PC-3 it was 12.1 µM (inactive); in the experiment with RXF 393, 7.76 µM (inactive). Moreover, the GI50 was 17.5 µM (inactive) in the experiment with SK-MEL-2; 7.36 µM (inactive) with SK-MEL-5; 13.9 µM (inactive) with SK-OV-3; 11.7 µM (inactive) in the experiment on SN12C; 11.9 µM (inactive) with SNB-19; 9.38 µM (inactive) with SW-620. For the same compound, the GI50 in the experiment with TK-10 is 10.2 µM (inactive); in the experiment on UACC-62, 5 µM (inactive).
For the compound `COc1cc([C@H]2c3cc4c(cc3O[C@@]3(O)COC(=O)[C@@H]23)OCO4)cc(OC)c1OC`, the GI50 in the experiment on CCRF-CEM, in the experiment with COLO 205, in the experiment on DU-145, in the experiment on HCC 2998, in the experiment with MDA-MB-231 and in the experiment with MDA-N was > 100 µM (inactive) in each case. The GI50 was > 100 µM (inactive) in the experiment with Malme-3M; > 10 µM (inactive) in the experiment on NCI-H23; > 100 µM (inactive) in the experiment with OVCAR-4; > 100 µM (inactive) with OVCAR-8; > 100 µM (inactive) in the experiment with PC-3; > 10 µM (inactive) with RXF 393. The GI50 in the experiment on SK-MEL-2, in the experiment on SK-MEL-5, with SK-OV-3, in the experiment on SN12C, in the experiment on SNB-19 and in the experiment with SW-620 was > 100 µM (inactive) throughout. The GI50 in the experiment with TK-10 and in the experiment on UACC-62 was > 100 µM (inactive) throughout.
For `CCCCCC1=CC(=O)C1(Cl)Cl`, the GI50 is 2.23 µM (inactive) with CCRF-CEM; 12.2 µM (inactive) with COLO 205; 13.1 µM (inactive) in the experiment on DU-145; 14.2 µM (inactive) in the experiment on HCC 2998; 9.93 µM (inactive) in the experiment with MDA-MB-231; 10.5 µM (inactive) with MDA-N. For the same compound, the GI50 is 9.55 µM (inactive) in the experiment on Malme-3M; 14.3 µM (inactive) in the experiment with NCI-H23; 15.9 µM (inactive) in the experiment on OVCAR-4; 10.6 µM (inactive) in the experiment on OVCAR-8; 14.5 µM (inactive) with PC-3; 12.7 µM (inactive) in the experiment on RXF 393. Further, the GI50 in the experiment on SK-MEL-2 is 20.4 µM (inactive); in the experiment with SK-MEL-5, 9.48 µM (inactive); with SK-OV-3, 33.9 µM (inactive); with SN12C, 20.3 µM (inactive); with SNB-19 it was 24.9 µM (inactive); with SW-620, 11.9 µM (inactive). Moreover, the GI50 with TK-10 was 5.81 µM (inactive); with UACC-62 it was 10.9 µM (inactive).
Consider `CCOC(=O)CNc1c(OCc2ccccc2)c(=O)c1=O`, for which the GI50 in the experiment with CCRF-CEM, in the experiment with COLO 205, in the experiment on DU-145, in the experiment on HCC 2998, in the experiment with MDA-MB-231 and in the experiment on MDA-N was > 100 µM (inactive) throughout. Further, the GI50 with Malme-3M, in the experiment with NCI-H23, with OVCAR-4, in the experiment with OVCAR-8, with PC-3 and in the experiment on RXF 393 was > 100 µM (inactive) throughout. For the same compound, the GI50 with SK-MEL-2, with SK-MEL-5, in the experiment on SK-OV-3, in the experiment with SN12C, in the experiment on SNB-19 and with SW-620 was > 100 µM (inactive) in each case. The GI50 with TK-10 and with UACC-62 was > 100 µM (inactive) in each case.
As for `COc1cccc(/C=N/[N+](C)(C)C)c1O`, the GI50 in the experiment on CCRF-CEM, in the experiment with COLO 205, with DU-145, in the experiment with HCC 2998, in the experiment with MDA-MB-231 and in the experiment with MDA-N was > 10 µM (inactive) in each case. Further, the GI50 in the experiment on Malme-3M is > 10 µM (inactive); with NCI-H23, 2.22 µM (inactive); with OVCAR-4 it was > 10 µM (inactive); with OVCAR-8, > 10 µM (inactive); in the experiment with PC-3 it was > 10 µM (inactive); in the experiment on RXF 393 it was > 10 µM (inactive). Further, the GI50 in the experiment on SK-MEL-2, in the experiment on SK-MEL-5, with SK-OV-3, in the experiment with SN12C, in the experiment with SNB-19 and with SW-620 was > 10 µM (inactive) in each case. For the same compound, the GI50 in the experiment with TK-10 and with UACC-62 was > 10 µM (inactive) in each case.
Regarding `CCCC(CC)c1c(O)c(O)c(C(CC)CCC)c(C(CC)CCC)c1C(CC)CCC` (stereo not given), the GI50 in the experiment on CCRF-CEM, with COLO 205, in the experiment on DU-145, in the experiment on HCC 2998, in the experiment on MDA-MB-231 and with MDA-N was > 10 µM (inactive) in each case. Also, the GI50 with Malme-3M, in the experiment on NCI-H23, in the experiment on OVCAR-4, in the experiment with OVCAR-8, in the experiment on PC-3 and in the experiment on RXF 393 was > 10 µM (inactive) each time. For the same compound, the GI50 in the experiment on SK-MEL-2, in the experiment with SK-MEL-5, in the experiment on SK-OV-3, in the experiment with SN12C, in the experiment on SNB-19 and with SW-620 was > 10 µM (inactive) in each case. Moreover, the GI50 in the experiment with TK-10 and in the experiment with UACC-62 was > 10 µM (inactive) throughout.
Regarding `N=C(N)Nc1ccc(-c2ccc(NC(=N)N)cc2)cc1`, the GI50 in the experiment on CCRF-CEM is 37.3 µM (inactive); in the experiment with COLO 205 it was 21.5 µM (inactive); in the experiment on DU-145 it was 25.9 µM (inactive); in the experiment with HCC 2998, 63 µM (inactive); in the experiment on MDA-MB-231, > 100 µM (inactive); with MDA-N, 40.7 µM (inactive). In addition, the GI50 in the experiment on Malme-3M is 19 µM (inactive); in the experiment on NCI-H23 it was 35.6 µM (inactive); in the experiment on OVCAR-4, 60.7 µM (inactive); with OVCAR-8 it was 43.8 µM (inactive); in the experiment with PC-3, 15.7 µM (inactive); in the experiment with RXF 393, 22.4 µM (inactive). In addition, the GI50 is 34.4 µM (inactive) in the experiment on SK-MEL-2; 16.3 µM (inactive) in the experiment on SK-MEL-5; > 55.8 µM (inactive) in the experiment with SK-OV-3; 12.4 µM (inactive) with SN12C; 41.4 µM (inactive) in the experiment on SNB-19; 62.5 µM (inactive) in the experiment with SW-620. The GI50 is 14.3 µM (inactive) with TK-10 and 40.1 µM (inactive) with UACC-62.
